For assay [1], the system named is NBS1, Rad51, Mre11, DNA-PK, Ku70 in Hut78 cells. Nature of the assay: Western blot of DSB repair proteins, Hut78 cells. It is filed as cell-based, homo sapiens. As to conditions: Hut78, 18 and 24 h post treatment. As for the experimental part:
(§1) Whole cells extract—Cells were suspended in lysis buffer (Tris-HCl 50 mM, NaCl 150 mM, NP-40 0.5%), incubated for lh on ice, centrifuged and the supernatant was collected. Protease and Phosphatase inhibitors were added to all buffers at a 1:100 dilutions. […] Bands were visualized by Odyssey Infrared Imaging System and the bands intense were normalized to actin.
(§2) To address whether AN-7 interfere in DSBs repair by regulating the expression of DSBs repair proteins, Immunoblot was applied for those proteins. MyLa and Hut78 cells were treated as previously described and subjected to western blot of DSBs repair proteins.
(In western blotting, separated proteins are transferred to a membrane and probed.)

In assay [2] the test system is Sezary syndrome Peripheral blood lymphocytes SPBL. The experiment in a line: MTT-based viability assay, Sezary PBL (SPBL). The note with it: Homo sapiens, Lymphocyte, 72 h, read-out: IC50 single treatment Dox. In general terms: Formazan colour is commonly taken as a measure of viable cells.
Protocol: (§4) Peripheral blood was diluted 1:3 in sterile phosphate-buffered saline (PBS). Lymphoprep was added in the same blood volume with a Pasteur pipette, and the sample was centrifuged. PBL were collected from the white median interphase, rinsed twice with PBS, and suspended in RPMI medium with 10 mM HEPES to 2×10^6 cells/mL.
(§5) MyLa cells (10^4), Hut78 cells (5×10^3), SPBL and NPBL (10^5) were seeded in triplicate in 96-well plates. The PBL were activated with PHA 40 μg/10^6 cell for 24 h before the experiment. […] The cells were then placed in a humidified incubator for 72 h. […] The MTT reagent was added to a final concentration of 0.5 mg/mL, and the cells were incubated for an additional 4 h. Thereafter, 0.1N HCl in isopropanol was added, and cell viability was determined using an ELISA reader (PowerWaveX, BioTek, Winooski, Vt., USA) at a 570 nm wavelength with background subtraction at 630-690 nM.
(§6) Viability and apoptosis curves were based on the averages of at least 3 independent experiments. The standard error (SE) was calculated for each group as follows: SE=standard deviation/√n, where n is number of values in the group. […] Significant differences in selectivity among groups were analyzed by comparing the IC50 values using two-tailed unpaired t-test using Excel or by comparing the differential effects for all the dose response titrations using ANOVA with repeated measures.
(§7) NPBL were treated at same molar ratio as SPBL.
For assay [3], the system named is MyLa cells. The experiment in a line: Alkaline comet assay, MyLa cells. It is filed as cell-based, human. As to conditions: 96 h after treatment, relative to 24 h. As for the experimental part: (§3) Comet assay using the Trevigen Comet assay kit (Trevigen Inc., Gaithersburg, Md., USA) was done according to the manufacturer's protocol. MyLa or Hut78 cells were treated with drugs, washed, incubated for interval time, washed in PBS, counted and suspended in PBS. 1 ×10^5 cells/ml were incubated with pre-heated low melting agarose for 20 min in 37° C., loaded on a comet-slide and kept in the dark for 30 min at 4° C., in cold lysis solution for another 20 min, and finally for 20 min with unwinding solution in RT. The slides were run with cold fresh alkaline electrophoresis buffer in the COMET-20 electrophoresis system (Scie-Plas, Harvard apparatus, UK) for 20 min in 21 volts, 4° C. Slides were stirred gently and washed twice in dH20 bath for 5 min and in 70% ethanol for 5 min. […] The cells were scored under fluorescence microscope (Nikon eclipse 55i, Tokyo, Japan) at a magnification ×10. Cell scores were analyzed using the software “Comet Assay IV” (perceptive instruments, UK). […] 24h after treating the cells the mean tail moment reaches its maximal level, therefore the percent of repaired damage was calculated as follows: (mean tail moment at 24h)−(mean tail moment at indicated time)/mean tail moment at 24 h. At least a total of 100 cells were measured per time-point. […]

The subject of assay [4] is γH2AX foci in Hut78 cells. The experiment in a line: γH2AX nuclear foci immunofluorescence, Hut78 cells. It is filed as cell-based, homo sapiens. The note with it: Hut78, 24 h-72 h after treatment, relative to 3 h. As to the method:
MyLa or Hut78 cells were treated with drugs, washed, incubated for interval time, and then 2×10^5cells/m1 were centrifuged with cyto-slides (CytoSlide, Shandon, Thermo, Ma, USA) in CYTOSPIN 4 (Shandon, Thermo scientific, West Palm Beach, USA) for 5 min 1000 rpm. Slides were washed with cold PBS on ice, pre-extracted with cold PBS-NP40-0.2% for 10 min, washed 3 times with cold PBS, fixed with 4% Paraformaldehyde for 10 min at RT, and washed 3 times with PBS. Slides were incubated with anti γ-H2AX, Bethyl A300-081A 1:1000, for 1.5 h in RT, washed twice in PBS-T (0.05% Tween in PBS) and once with PBS, incubated with Donkey anti rabbit IgG Alexa Fluor A-21206 1:700, for 30 min at RT, washed 3 times with PBS, dried gently, covered with 1 drop of Fluorescent mounting medium with DAPI (GBI-labs, WA, USA) and on top with cover glass. Slides were visualized in a light microscope (Olympus BX52, Tokyo, Japan). Foci analysis was performed using ImageJ software and PZfociEZ plugin. % of cells with >5 foci/cell was considered as damaged cells. % of repaired damage was calculated as follows: (% of cells with >5 foci/cell at 3 h)−(% of cells with >5 foci/cell at indicated time)/(% of cells with >5 foci/cell at 3 h). At least a total of 150 cells were measured per time-point.

For assay [5], the system named is NBS1, Rad51, Mre11, DNA-PK, Ku70 in MyLa cells. Nature of the assay: Western blot of DSB repair proteins, MyLa cells. It is filed as cell-based, human. The note with it: 24 and 48 h post treatment. As to the method:
as §1, §2

The test system of assay [6] is Hut78 cells. The experiment in a line: Alkaline comet assay, Hut78 cells. It is filed as cell-based, homo sapiens. The note with it: Hut78, 72 h after treatment, relative to 24 h. As to the method:
as §3

Assay [7] relates to NPBL. Nature of the assay: MTT-based viability assay, normal PBL (NPBL).
Protocol: as §4, §5, §6, §7
Assay [8] concerns p-KAP1, γH2AX in MyLa cells. Nature of the assay: Western blot of p-KAP1 and γH2AX, MyLa cells. It is filed as cell-based, human. As to conditions: 1 mM AN-7 2 h, 1 μM Dox 1 h, or AN-7 1 h followed with Dox 1 h. As to the method: Cell fraction—3×10^6cells were suspended in 100 μl hypotonic buffer (HEPES 10 mM, KCl 5 mM, MgCl2 1.5 mM, DTT 1 mM, NP-40 1%), incubated for 15 min in ice, centrifuged and the supernatant fraction was subjected to western blot of pKAP1 and actin. The sediment was washed once with hypotonic buffer followed by suspension in 100 μl of hypertonic buffer (HEPES 10 mM, NaCl 500 mM, MgCl2 1.5 mM, DTT 1 mM, NP-40 1%), incubated for 15 min in ice, centrifuged, supernatant was removed and the sediment was boiled, vortexed for 10 min at 95° C. with sample buffer ×3 for 3 times and subjected to western blot of γH2AX.
as §1
Next, cells were fractionated and fraction lysate were subjected to western blot of phosphorylated KAP1 (p-KAP1), γH2AX and actin.

Assay [9] concerns MyLa cells. The experiment in a line: MTT-based viability assay, MyLa cells. As to conditions: Homo sapiens, 72 h.
Protocol: as §5, §6
The subject of assay [10] is Hut78 cells. The experiment in a line: MTT-based viability assay, Hut78 cells. As to conditions: Homo sapiens, HuT78, 72 h, read-out: IC50 single treatment Dox.
Protocol: as §5, §6
Assay [11] deals with MyLa cells. Nature of the assay: FACS analysis with annexin V and PI staining (apoptosis), MyLa cells. As to conditions: SAHA 10 μM or AN-7 300 μM. In general terms: Flow cytometry measures light scatter and fluorescence of single cells or particles in a stream.
Protocol: (§8) The cells (2.5×10^6 cells/mL) were washed in PBS and binding buffer and were resuspended in binding buffer, and of fluorescein isothiocyanate-conjugated annexin V (5 μL) was added to a 100 μL cell suspension for 10-15 min. Incubation was performed at room temperature under light-protected conditions. The cells were then washed in binding buffer and were resuspended in the binding buffer and propidium iodide (PI) (5 μL) was added. The samples were analyzed by flow cytometry (FACS Calibur 4.1.6, Becton Dickinson): fluorescein-labeled annexin V at a 530 nm wavelength, and PI at a 585 nm wavelength. The percentage of cells was calculated by their distribution in a fluorescence dot plot generated with FCS Express 4 software (De Novo Software, Los Angeles, Calif., USA). Early (annexin V-positive) and late (annexin V+PI-positive) apoptotic cells were summed to yield the total number of apoptotic cells.
Assay [12] has as its system caspase 3, PARP, P21 and Bax in MF/SS cell lines. Nature of the assay: Western blot of pro-apoptotic proteins in MF/SS cell lines. It is filed as cell-based, human. The note with it: MyLa and Hut78, SAHA 10 μM or AN-7 300 μM. An excerpt:
However, there was a stronger signal in response to SAHA.

The test system of assay [13] is HDAC1. Nature of the assay: Western blot of HDAC1 protein expression in MF/SS cell lines. The note with it: MyLa and Hut78, SAHA 10 μM or AN-7 300 μM. It counts as cell-based, human.
Assay [14] concerns Acetylated H3. The experiment in a line: Western blot of acetylated H3 in nuclear lysate of MF/SS cell lines. The note with it: MyLa and Hut78, SAHA 10 μM or AN-7 300 μM.
Protocol: Cells (5×10^6) were suspended in 300 μL of cytoplasmic buffer (HEPES 10 mM, KCl 10 mM, EDTA 1 mM, EGTA 1 mM, DTT 1 mM). After 20 min of incubation on ice, the mixture was passed 5 times through a 25-G syringe and then centrifuged briefly to obtain the cytoplasmic supernatant.
The nuclear pellet was suspended in 40-60 μL of nuclear buffer (cytoplasmic buffer+10% glycerol), incubated with shaking at 4° C. for 15 min, and centrifuged. The supernatant was collected as a nuclear fraction.
Cell extracts were separated by SDS-polyacrylamide gel electrophoresis (SDS-PAGE), transferred to a nitrocellulose membrane, and subjected to immunoblot with primary and secondary antibodies, as listed in table 1.
Assay [15] deals with MyLa cells. Nature of the assay: cells. It is filed as cell-based, human. The note with it: Homo sapiens.
The subject of assay [16] is Hut78 cells. The experiment in a line: FACS analysis with annexin V and PI staining (apoptosis), Hut78 cells. The note with it: Hut78; SAHA 10 μM or AN-7 300 μM.
Protocol: as §8

The IC50 is the concentration at which inhibition is half-maximal.

In the case of `COc1cccc2c1C(=O)c1c(O)c3c(c(O)c1C2=O)C[C@@](O)(C(=O)CO)C[C@@H]3O[C@H]1C[C@H](N)[C@H](O)[C@H](C)O1` [Dox, doxorubicin, reference compound], the “expression of NBS1 and DNA-PK” value in assay [1] is “did not affect the expression of DSB repair proteins”. In addition, the IC50 in assay [2] amounted to 68.2 ± 10.8 nM; in [7] (Homo sapiens, 72 h, read-out: IC50 single treatment Dox), 399 ± 24.3 nM; in [9] (read-out: IC50 single treatment Dox), 19 ± 1 nM; in [10], 27 ± 2.6 nM. The “damage repair (DNA breaks, mean tail moment)” value in [3] is given as “about 72%”. Moreover, in assay [4], the “percentage of repaired damage (γH2AX foci)” value came out at 77.9%. Also, the “expression of NBS1, Mre11, Rad51 and DNA-PK” value in [5] was “did not affect the expression of DSB repair proteins”. Also, in [6], the “repair of DNA breaks (mean tail moment)” value is “about 50%”. For the same molecule, the “induction and clearance of p-KAP1” value in [8] was “detected at 1-3 hours and declined after 24 hours”. In assay [8], the “induction and clearance of γH2AX” value is “clearance of γH2AX observed at 24 h”.
`O=C(CCCCCCC(=O)Nc1ccccc1)NO` [SAHA, Suberoylanilide hydroxamic acid, reference compound]: the apoptosis entry in assay [11] and in assay [16] was “about 60%” throughout. The “expression of pro-apoptotic proteins (western blot)” value in [12] was “cleavage of caspase 3 and poly ADP-ribose polymerase (PARP) and the production of P21 and Bax”. The “NPBL survival at high doses” value in assay [7] (high doses lethal to Hut78 and MyLa cells) is listed as “lethal to all cells”. In addition, in assay [13], the HDAC1 expression level entry is “downregulated”. The IC50 in [9] (read-out: IC50 single treatment (HDACI)) is 2200 ± 100 nM; in assay [15] (24 h, read-out: IC50 Long exposure), 2300 ± 80 nM; in assay [15] (read-out: IC50 Short exposure), 33000 ± 3700 nM. Moreover, the “expression of acetylated H3” value in [14] is recorded as “induced”.

Values taken from US20170189376A1, “BUTYROYLOXYMETHYL DIETHYL PHOSPHATE COMPOUNDS AND USES THEREOF” (MOR RESEARCH APPLICATIONS LTD., priority 2016, published 2017).
